Measured values as given in patent publication US10610467B2, “Lightening composition comprising ginseng-derived exosome-like vesicles” (AMOREPACIFIC CORPORATION, priority 2015, dated 2020).

System: Human primary melanocytes
Assay: Melanin production by human melanocytes irradiated with 20 mJ/cm^2 UVB 2 times, treated with test substances for 2 weeks (Test Example 3)
Assay type: cell-based
Procedure: Human primary melanocytes (Life Technologies, CA, USA) were cultured in M-254 medium (Gibco BRL, NY, USA) supplemented with human melanocyte growth supplement (HMGS; Gibco BRL, NY, USA) under the condition of 37° C. and 5% CO2. After plating the cells on a 100-mm culture dish with 2×10^5 cells per dish and waiting overnight, 20 mJ/cm^2 UVB was radiated 2 times with a 24-hour interval. Then, the cells were cultured for 2 weeks while replacing the medium with one containing the ginseng-derived exosome-like vesicles obtained in Example 1 at concentrations of 0.1 μg/mL, 1 μg/m L, 5 μg/mL or 10 μg/mL once in 4 days. For comparison, positive control groups were treated with 30 μM Melasolv, 1 μM compound K or 2 ppm fermented saponin for 2 weeks in the same manner and melanin production was measured. As negative control groups, melanocytes not treated with UVB and melanocytes treated with UVB but not treated with the test substances were cultured in the same manner. 2 weeks later, the cells were detached from the culture dish and counted. The cells of the same number were collected into a microtube, lysed with a RIPA lysis buffer (Millipore, 20-188) and then centrifuged at 13,500 rpm for 30 minutes. The precipitating pellets were dissolved in 1 N NaOH and photographed for comparison of color. Melanin contents were compared by measuring absorbance at 450 nm.

| Structure (SMILES) | Decrease (%) in melanin contents (30 μM) | Decrease (%) in melanin contents (1 μM) |
| --- | --- | --- |
| COc1cc(/C=C/C(=O)Oc2cc(C)ccc2C(C)C)cc(OC)c1OC [Melasolv] | 54.0% | – |
| CC(C)=CCC[C@](C)(O[C@@H]1O[C@H](CO)[C@@H](O)[C@H](O)[C@H]1O)[C@H]1CC[C@]2(C)[C@@H]1[C@H](O)C[C@@H]1[C@@]3(C)CC[C@H](O)C(C)(C)[C@@H]3CC[C@]12C [Comp. K, compound K] | – | 28.3% |
